Laboratory results published in US9512120B2, “Microbicidally active imidazopyridine derivatives” (Syngenta Participations AG, priority 2013, dated 2016).

Experiments:
[1] = system: Puccinia recondita f. sp. Tritici; test: Puccinia recondita f. sp. tritici / wheat / leaf disc preventative (brown rust); format: in vivo; settings: foliar, wheat leaf segments cv Kanzler, inoculated 1 day after application, assessed 7-9 days after application, read-out: control of Puccinia recondita f. sp. Tritici (percent disease control compared to untreated)
How it was run: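 Preventative test: percent disease control relative to untreated leaf segments was assessed 7-9 days post-application. Wheat (cv Kanzler) leaf discs were treated at 200 ppm and spore-inoculated 1 day afterwards. Discs were held at 19° C and 75% relative humidity under a 12/12 h light cycle.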

[2] = system: Glomerella lagenarium (Colletotrichum lagenarium); test: Glomerella lagenarium (Colletotrichum lagenarium) / liquid culture (anthracnose); format: cell-based; settings: Colletotrichum orbiculare, PDB, 24° C., 3-4 days after application, read-out: control of Glomerella lagenarium (inhibition of growth, photometric)
How it was run: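 Test compound, delivered in DMSO at an application rate of 200 ppm, was combined with spore-containing PDB. Photometric growth-inhibition measurement followed 3-4 days of incubation at 24° C.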

Plasmopara viticola = Plasmopara viticola / grape / leaf disc preventative; format: in vivo; settings: foliar, grape vine leaf disks, inoculated 1 day after application, assessed 6-8 days after application, read-out: control of Plasmopara viticola (percent disease control compared to untreated)
Pythium ultimum = Pythium ultimum / liquid culture (seedling damping off); format: cell-based; settings: Globisporangium ultimum, potato dextrose broth, 24° C., 2-3 days after application, read-out: control of Pythium ultimum (inhibition of growth, photometric)
How it was run: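 Test compound in DMSO at 200 ppm was incubated with mycelia fragments and oospores in potato dextrose broth at 24 °C. Growth inhibition was read photometrically 2-3 days after application.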

[3] = system: Puccinia recondita f. sp. Tritici; test: Puccinia recondita f. sp. tritici / wheat / leaf disc curative (brown rust); format: in vivo; settings: foliar, wheat leaf segments cv Kanzler, applied 1 day after inoculation, assessed 6-8 days after application, read-out: control of Puccinia recondita f. sp. Tritici (percent disease control compared to untreated)
Description: Puccinia recondita f. Sp. Tritici/Wheat/Leaf Disc Curative (Brown Rust): Wheat leaf segments cv Kanzler were placed on agar in 24-well plates. The leaf segments were inoculated with a spore suspension of the fungus. The plates were stored in darkness at 19° C. and 75% relative humidity. The formulated test compound diluted in water was applied at an application rate of 200 ppm 1 day after inoculation. […] Tritici at 200 ppm when compared to untreated control leaf disks under the same conditions, which show extensive disease development: 2, 13, 16, 23, 30, 61, 75, 89, 103, 173, 174

[4] = system: Mycosphaerella arachidis (Cercospora arachidicola); test: Mycosphaerella arachidis (Cercospora arachidicola) / liquid culture (early leaf spot); format: cell-based; settings: PDB, 24° C., 4-5 days after application, read-out: control of Mycosphaerella arachidis (inhibition of growth, photometric)
How it was run: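 Conidia suspended in potato dextrose broth and added to test compound from DMSO solution at 200 ppm. Incubated at 24 °C; growth inhibition read photometrically 4-5 days after application.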

[5] = system: Fusarium graminearum, syn. Gibberella zeae; test: whole plant or invertebrate; format: in vivo; settings: in Triticum aestivum, 144 h, read-out: control of Gibberella zeae (preventative fungicidal activity)
Sclerotinia sclerotiorum = Sclerotinia sclerotiorum liquid culture (cottony rot / white mold); format: cell-based; settings: PDB, 24° C., 3-4 days after application, read-out: control of Sclerotinia sclerotiorum (inhibition of growth, photometric)
How it was run: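 Mycelia fragments of Sclerotinia sclerotiorum in potato dextrose broth were added to compound in DMSO. Cultures incubated at 24° C; growth inhibition determined photometrically 3-4 days after application.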

Fusarium culmorum = test: microbe, parasite or virus in culture; format: cell-based; settings: read-out: control of Fusarium culmorum (inhibition of growth, photometric)

**Q.** Which pest or weed control at 200 ppm [1] does the source give for `CCCn1c(-n2ncnc2N)nc2cncc(CC)c21` [Compound 174, 2-(7-ethyl-1-propyl-imidazo[4,5-c]pyridin-2-yl)-1,2,4-triazol-3-amine] here?
**A.** ≥ 80%

**Q.** What about the inhibition at 20 ppm [2] of the same compound?
**A.** ≥ 80%

**Q.** And the pest or weed control at 200 ppm (Plasmopara viticola)?
**A.** ≥ 80%

**Q.** And the inhibition at 20 ppm (Pythium ultimum)?
**A.** ≥ 80%

**Q.** And the pest or weed control at 200 ppm [3]?
**A.** ≥ 80%

**Q.** Which results are given for `CCCn1c(-n2ncnc2N)nc2cnccc21` [Compound 13, 2-(1-propylimidazo[4,5-c]pyridin-2-yl)-1,2,4-triazol-3-amine]?
**A.** pest or weed control at 200 ppm [1]: ≥ 80%; inhibition at 20 ppm [4]: ≥ 80%; inhibition at 20 ppm [2]: ≥ 80%; melting point: 210 to 212 °C; pest or weed control at 20 ppm [5]: ≥ 80%; inhibition at 20 ppm (Pythium ultimum): ≥ 80%; pest or weed control at 200 ppm [3]: ≥ 80%

**Q.** With `CCn1c(-n2ncnc2N)nc2cncc(-c3cccc(F)c3F)c21` [Compound 102, 2-[7-(2,3-difluorophenyl)-1-ethylimidazo[4,5-c]pyridin-2-yl]-1,2,4-triazol-3-amine] as the compound, how does the pest or weed control at 200 ppm [1] read?
**A.** ≥ 80%

**Q.** And the inhibition at 20 ppm [4]?
**A.** ≥ 80%

**Q.** What about the inhibition at 20 ppm [2] of the same compound?
**A.** ≥ 80%

**Q.** What about the inhibition at 20 ppm (Sclerotinia sclerotiorum) of the same compound?
**A.** ≥ 80%

**Q.** What about the pest or weed control at 20 ppm [5] of the same compound?
**A.** ≥ 80%

**Q.** And the inhibition at 20 ppm (Fusarium culmorum)?
**A.** ≥ 80%

**Q.** And the inhibition at 20 ppm (Pythium ultimum)?
**A.** ≥ 80%

**Q.** With `CCn1c(-n2ncnc2N)nc2cncc(-c3cccc(OC)c3F)c21` [Compound 93, 2-[1-ethyl-7-(2-fluoro-3-methoxyphenyl)imidazo[4,5-c]pyridin-2-yl]-1,2,4-triazol-3-amine] as the compound, how does the pest or weed control at 200 ppm [1] read?
**A.** ≥ 80%

**Q.** What about the inhibition at 20 ppm [4] of the same compound?
**A.** ≥ 80%

**Q.** And the inhibition at 20 ppm [2]?
**A.** ≥ 80%

**Q.** What about the inhibition at 20 ppm (Sclerotinia sclerotiorum) of the same compound?
**A.** ≥ 80%

**Q.** And the pest or weed control at 20 ppm [5]?
**A.** ≥ 80%

**Q.** And the inhibition at 20 ppm (Fusarium culmorum)?
**A.** ≥ 80%

**Q.** With `CCn1c(-n2ncnc2N)nc2cncc(C(C)=O)c21` [Compound 75, 1-[2-(5-amino-1,2,4-triazol-1-yl)-1-ethylimidazo[4,5-c]pyridin-7-yl]ethanone] as the compound, how does the pest or weed control at 200 ppm [1] read?
**A.** ≥ 80%

**Q.** What about the inhibition at 20 ppm [4] of the same compound?
**A.** ≥ 80%

**Q.** What about the inhibition at 20 ppm (Sclerotinia sclerotiorum) of the same compound?
**A.** ≥ 80%

**Q.** What about the melting point of the same compound?
**A.** 242 to 244 °C

**Q.** And the pest or weed control at 200 ppm [3]?
**A.** ≥ 80%

**Q.** For `CC=Cc1cncc2nc(-n3ncnc3N)n(CC)c12` [Compound 67, 2-(1-ethyl-7-prop-1-enylimidazo[4,5-c]pyridin-2-yl)-1,2,4-triazol-3-amine], which pest or weed control at 200 ppm [1] is on record?
**A.** ≥ 80%

**Q.** And the inhibition at 20 ppm [4]?
**A.** ≥ 80%

**Q.** And the inhibition at 20 ppm [2]?
**A.** ≥ 80%

**Q.** And the inhibition at 20 ppm (Sclerotinia sclerotiorum)?
**A.** ≥ 80%

**Q.** What about the inhibition at 20 ppm (Pythium ultimum) of the same compound?
**A.** ≥ 80%

**Q.** For `CCn1c(-n2ncnc2N)nc2cncc(/C(C)=N\OC/C=C(\C)Cl)c21` [Compound 153, 2-[7-[(Z)-N-[(E)-3-chlorobut-2-enoxy]-C-methyl-carbonimidoyl]-1-ethyl-imidazo[4,5-c]pyridin-2-yl]-1,2,4-triazol-3-amine], which pest or weed control at 200 ppm [1] is on record?
**A.** ≥ 80%

**Q.** What about the inhibition at 20 ppm [4] of the same compound?
**A.** ≥ 80%

**Q.** What about the inhibition at 20 ppm [2] of the same compound?
**A.** ≥ 80%

**Q.** And the inhibition at 20 ppm (Sclerotinia sclerotiorum)?
**A.** ≥ 80%

**Q.** And the pest or weed control at 200 ppm (Plasmopara viticola)?
**A.** ≥ 80%

**Q.** And the inhibition at 20 ppm (Fusarium culmorum)?
**A.** ≥ 80%

**Q.** Which pest or weed control at 200 ppm [1] does the source give for `CCc1cncc2nc(-n3ncnc3N)n(CC)c12` [Compound 23, 2-(1,7-diethylimidazo[4,5-c]pyridin-2-yl)-1,2,4-triazol-3-amine] here?
**A.** ≥ 80%

**Q.** And the inhibition at 20 ppm [4]?
**A.** ≥ 80%

**Q.** And the inhibition at 20 ppm [2]?
**A.** ≥ 80%

**Q.** And the inhibition at 20 ppm (Sclerotinia sclerotiorum)?
**A.** ≥ 80%

**Q.** And the melting point?
**A.** 176 to 179 °C

**Q.** And the pest or weed control at 20 ppm [5]?
**A.** ≥ 80%

**Q.** And the inhibition at 20 ppm (Fusarium culmorum)?
**A.** ≥ 80%

**Q.** And the inhibition at 20 ppm (Pythium ultimum)?
**A.** ≥ 80%

**Q.** What about the pest or weed control at 200 ppm [3] of the same compound?
**A.** ≥ 80%

**Q.** What does the source list for `CCn1c(-n2ncnc2N)nc2cncc(-c3ccc(F)c(F)c3F)c21` [Compound 86, 2-[1-ethyl-7-(2,3,4-trifluorophenyl)imidazo[4,5-c]pyridin-2-yl]-1,2,4-triazol-3-amine]?
**A.** pest or weed control at 200 ppm [1]: ≥ 80%; inhibition at 20 ppm [4]: ≥ 80%; inhibition at 20 ppm [2]: ≥ 80%; inhibition at 20 ppm (Sclerotinia sclerotiorum): ≥ 80%; inhibition at 20 ppm (Fusarium culmorum): ≥ 80%; inhibition at 20 ppm (Pythium ultimum): ≥ 80%

**Q.** Which results are given for `CCn1c(-n2ncnc2N)nc2cncc(-c3cccc(Cl)c3F)c21` [Compound 90, 2-[7-(3-chloro-2-fluorophenyl)-1-ethylimidazo[4,5-c]pyridin-2-yl]-1,2,4-triazol-3-amine]?
**A.** pest or weed control at 200 ppm [1]: ≥ 80%; inhibition at 20 ppm [4]: ≥ 80%; inhibition at 20 ppm [2]: ≥ 80%; inhibition at 20 ppm (Sclerotinia sclerotiorum): ≥ 80%; pest or weed control at 20 ppm [5]: ≥ 80%; inhibition at 20 ppm (Fusarium culmorum): ≥ 80%

**Q.** What does the source list for `CCn1c(-n2ncnc2N)nc2cncc(-c3cccnc3F)c21` [Compound 89, 2-[1-ethyl-7-(2-fluoropyridin-3-yl)imidazo[4,5-c]pyridin-2-yl]-1,2,4-triazol-3-amine]?
**A.** pest or weed control at 200 ppm [1]: ≥ 80%; inhibition at 20 ppm [2]: ≥ 80%; inhibition at 20 ppm (Sclerotinia sclerotiorum): ≥ 80%; pest or weed control at 20 ppm [5]: ≥ 80%; inhibition at 20 ppm (Fusarium culmorum): ≥ 80%; inhibition at 20 ppm (Pythium ultimum): ≥ 80%; pest or weed control at 200 ppm [3]: ≥ 80%

**Q.** With `CCCn1c(-n2ncnc2N)nc2cncc(C)c21` [Compound 173, 2-(7-methyl-1-propyl-imidazo[4,5-c]pyridin-2-yl)-1,2,4-triazol-3-amine] as the compound, how does the pest or weed control at 200 ppm [1] read?
**A.** ≥ 80%

**Q.** What about the inhibition at 20 ppm [4] of the same compound?
**A.** ≥ 80%

**Q.** And the inhibition at 20 ppm [2]?
**A.** ≥ 80%

**Q.** And the inhibition at 20 ppm (Pythium ultimum)?
**A.** ≥ 80%

**Q.** And the pest or weed control at 200 ppm [3]?
**A.** ≥ 80%
